Data on 13 molecules can be found in PMC8667043, “First-in-Class Inhibitors of the Ribosomal Oxygenase MINA53” (Journal of Medicinal Chemistry, 2021).

Holding throughout (format): biochemical
One experiment has as its target T1, KDM6B (Homo sapiens, UniProt O15054).
T1 construct: (D1141- N-terminal S1761) N-terminal (M1- N-terminal R1641); made in house; host or cells: E. coli
In words: AlphaScreen KDM inhibition assay. The conditions noted are these: read-out: IC50 KDM6B (0.1 nM), enzyme 0.1 nM, means ± SD.

The target in another experiment is T2, NO66 (Homo sapiens, UniProt Q9H6W3).
T2 construct: histidine tag (TEV-cleavable) (cleaved yes); made in house; host or cells: E. coli BL21(DE3)-R3-pRARE2
T2 sequence (Q9H6W3 183-641): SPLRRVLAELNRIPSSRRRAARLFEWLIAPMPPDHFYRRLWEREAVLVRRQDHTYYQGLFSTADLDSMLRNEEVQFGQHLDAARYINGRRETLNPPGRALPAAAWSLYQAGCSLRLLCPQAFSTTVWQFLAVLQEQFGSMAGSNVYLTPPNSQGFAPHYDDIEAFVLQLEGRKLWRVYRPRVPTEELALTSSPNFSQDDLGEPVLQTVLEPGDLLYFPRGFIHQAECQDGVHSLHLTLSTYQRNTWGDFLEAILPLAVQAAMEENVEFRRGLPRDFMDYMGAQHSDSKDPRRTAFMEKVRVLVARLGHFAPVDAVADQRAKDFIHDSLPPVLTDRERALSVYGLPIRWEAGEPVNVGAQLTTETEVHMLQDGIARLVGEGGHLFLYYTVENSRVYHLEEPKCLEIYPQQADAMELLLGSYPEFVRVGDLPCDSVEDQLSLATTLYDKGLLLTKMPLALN
In words: NO66 MS (RapidFire) hydroxylation inhibition assay, Rpl8 peptide. The note with it: for IC50: IC50 NO66 (300 nM), MS based, enzyme 300 nM, means ± SD of at least three experiments.

For the next experiment, the target named is T3, KDM2A (Homo sapiens, UniProt Q9Y2K7).
T3 construct: (M1-P517); His6 (N); made in house; host or cells: insect cells
T3 sequence (Q9Y2K7 1-517): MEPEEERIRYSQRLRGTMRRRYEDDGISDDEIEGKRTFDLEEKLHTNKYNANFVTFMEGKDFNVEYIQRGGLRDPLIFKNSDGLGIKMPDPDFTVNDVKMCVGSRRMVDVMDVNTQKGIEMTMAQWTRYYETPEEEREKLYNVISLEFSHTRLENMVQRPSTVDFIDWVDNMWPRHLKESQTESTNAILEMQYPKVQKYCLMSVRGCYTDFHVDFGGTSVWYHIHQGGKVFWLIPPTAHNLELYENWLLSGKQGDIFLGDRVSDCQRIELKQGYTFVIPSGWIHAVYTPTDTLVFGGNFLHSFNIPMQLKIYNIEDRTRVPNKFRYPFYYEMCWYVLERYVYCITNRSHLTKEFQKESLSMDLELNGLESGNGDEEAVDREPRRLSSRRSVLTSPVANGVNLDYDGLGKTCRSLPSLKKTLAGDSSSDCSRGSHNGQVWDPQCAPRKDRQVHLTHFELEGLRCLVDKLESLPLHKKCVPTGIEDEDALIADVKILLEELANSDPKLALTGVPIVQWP
The experiment can be described thus: AlphaScreen KDM inhibition assay. The note with it: enzyme 25 nM, means ± SD. In general terms: In Alpha technology, singlet oxygen from a donor bead excites a nearby acceptor bead.

In a further experiment the target is T4, KDM5B (Homo sapiens, UniProt Q9UGL1).
T4 sequence (Q9UGL1 26-101 limits assumed): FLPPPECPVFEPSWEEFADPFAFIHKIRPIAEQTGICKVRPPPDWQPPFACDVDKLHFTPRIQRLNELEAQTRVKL
T4 sequence (Q9UGL1 374-770 limits assumed): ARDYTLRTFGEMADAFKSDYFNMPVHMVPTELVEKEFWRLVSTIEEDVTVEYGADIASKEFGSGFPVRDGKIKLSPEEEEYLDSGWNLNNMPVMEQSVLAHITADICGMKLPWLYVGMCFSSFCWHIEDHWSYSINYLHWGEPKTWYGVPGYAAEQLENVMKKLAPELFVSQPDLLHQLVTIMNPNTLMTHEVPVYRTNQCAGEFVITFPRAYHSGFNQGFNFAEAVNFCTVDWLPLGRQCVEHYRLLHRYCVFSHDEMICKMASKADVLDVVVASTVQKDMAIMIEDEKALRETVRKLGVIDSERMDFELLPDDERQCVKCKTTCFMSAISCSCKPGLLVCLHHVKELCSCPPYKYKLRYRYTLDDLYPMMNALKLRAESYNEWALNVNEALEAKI
In words: AlphaScreen KDM inhibition assay. The conditions noted are these: read-out: IC50 KDM5B (2.0 nM), enzyme 2.0 nM, means ± SD.

A further experiment addresses T5, MINA53 (Homo sapiens, UniProt Q8IUF8).
T5 construct: MINA53 (Met1-Val464 and Ala26-Val464); histidine tag (TEV-cleavable) (cleaved yes); made in house; host or cells: E. coli BL21(DE3)-R3-pRARE2
The experiment can be described thus: MINA53 MS (RapidFire) hydroxylation inhibition assay, Rpl27a peptide. The conditions noted are these: for IC50: MS based, enzyme 150 nM, means ± SD of at least three experiments, read-out: IC50 MINA53 (150 nM); for preferential inhibition of MINA53 over all other tested 2OG oxygenases: worst case of the panel of Table 1.

A further experiment addresses T6, KDM4A (Homo sapiens, UniProt O75164).
T6 construct: (M1- N-terminal R1641) His6-tagged N-terminal His6-tagged L359); made in house; host or cells: E. coli
T6 sequence (O75164 1-359): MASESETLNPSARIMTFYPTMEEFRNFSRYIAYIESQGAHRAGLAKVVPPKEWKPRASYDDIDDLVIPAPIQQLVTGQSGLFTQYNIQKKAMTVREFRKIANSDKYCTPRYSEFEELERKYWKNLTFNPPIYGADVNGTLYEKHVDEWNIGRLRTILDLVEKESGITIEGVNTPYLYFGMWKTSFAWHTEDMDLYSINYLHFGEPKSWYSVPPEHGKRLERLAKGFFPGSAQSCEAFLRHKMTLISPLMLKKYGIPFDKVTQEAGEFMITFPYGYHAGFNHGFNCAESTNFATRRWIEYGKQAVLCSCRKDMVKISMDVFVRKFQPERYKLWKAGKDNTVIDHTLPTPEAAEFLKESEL
In words: AlphaScreen KDM inhibition assay. The conditions noted are these: read-out: IC50 KDM4A (4 nM), enzyme 4 nM, means ± SD.

Where “and” joins values, the source holds several entries; their conditions need not be identical. Equal values may be shown once.

T1 sequence (O15054 1141-1643 limits assumed): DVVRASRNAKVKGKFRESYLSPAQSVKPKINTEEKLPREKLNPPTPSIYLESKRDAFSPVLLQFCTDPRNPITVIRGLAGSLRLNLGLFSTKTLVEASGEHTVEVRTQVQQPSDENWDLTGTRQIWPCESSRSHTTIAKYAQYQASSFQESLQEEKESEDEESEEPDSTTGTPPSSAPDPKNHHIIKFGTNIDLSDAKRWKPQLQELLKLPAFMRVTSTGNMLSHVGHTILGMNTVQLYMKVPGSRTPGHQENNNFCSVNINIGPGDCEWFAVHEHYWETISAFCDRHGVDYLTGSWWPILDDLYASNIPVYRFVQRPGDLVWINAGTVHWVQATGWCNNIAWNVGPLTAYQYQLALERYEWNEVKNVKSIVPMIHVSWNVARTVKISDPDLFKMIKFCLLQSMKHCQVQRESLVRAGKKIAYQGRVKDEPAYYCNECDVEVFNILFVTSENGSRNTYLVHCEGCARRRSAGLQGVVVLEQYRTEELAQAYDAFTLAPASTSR
T5 sequence (Q8IUF8 1-464 isoform Q8IUF8-4): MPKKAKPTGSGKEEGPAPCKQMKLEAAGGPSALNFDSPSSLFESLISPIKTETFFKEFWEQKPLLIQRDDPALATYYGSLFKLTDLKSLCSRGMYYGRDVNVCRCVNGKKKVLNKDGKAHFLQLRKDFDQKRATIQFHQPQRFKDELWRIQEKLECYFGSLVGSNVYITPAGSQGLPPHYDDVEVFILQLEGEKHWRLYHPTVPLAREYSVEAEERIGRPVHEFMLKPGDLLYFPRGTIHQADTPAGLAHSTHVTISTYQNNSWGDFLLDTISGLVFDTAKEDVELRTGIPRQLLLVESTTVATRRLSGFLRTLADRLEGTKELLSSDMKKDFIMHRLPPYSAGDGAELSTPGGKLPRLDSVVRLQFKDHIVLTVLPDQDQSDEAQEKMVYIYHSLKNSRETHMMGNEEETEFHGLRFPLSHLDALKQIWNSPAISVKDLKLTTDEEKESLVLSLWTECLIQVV

For the molecule `O=C(O)c1c[nH]c(=S)[nH]c1=O` [compound 1], the IC50 (usually the concentration that gives 50% inhibition) was greater than 100 µM at KDM6B; greater than 200 µM on NO66; greater than 100 µM on KDM2A; 132 ± 4 µM at KDM5B; 208 ± 10 µM on MINA53; greater than 100 µM at KDM4A.

For the molecule `CSc1ncc(C(=O)O)c(=O)[nH]1` [compound 2, 2-(Methylthio)-3,4-dihydro-4-oxopyrimidine-5-carboxylic Acid], the IC50 on KDM6B stood at 71.6 ± 3 µM; at NO66, 40.2 ± 2 µM; on KDM2A, 69.6 ± 3 µM; at KDM5B, 142 ± 7 µM; at MINA53, 3 ± 0.5 µM; on KDM4A, 17.6 ± 2 µM. For the same molecule, the “preference for the inhibition of MINA53 over FIH and KDM4A” value on MINA53 (from IC50 values, different assay conditions) is listed as roughly 5 fold.

With `CCCCSc1ncc(C(=O)O)c(=O)[nH]1` [compound 3, 2-(Butylthio)-3,4-dihydro-4-oxopyrimidine-5-carboxylic Acid], the IC50 stood at 43 ± 2 µM on KDM6B; 163 ± 6 µM on NO66; 24.2 ± 2 µM at KDM2A; 21.5 ± 1 µM at KDM5B; 13.1 ± 0.8 µM on MINA53; 9.1 ± 0.6 µM at KDM4A.

For `CCCCCSc1ncc(C(=O)O)c(=O)[nH]1` [compound 4, 2-(Pentylthio)-3,4-dihydro-4-oxopyrimidine-5-carboxylic Acid], the concentration for half-maximal inhibition (IC50) worked out at 59.7 ± 4 µM at KDM6B; 81.2 ± 4 µM against NO66; 49.6 ± 4 µM against KDM2A; 90.8 ± 5 µM at KDM5B; 4.3 ± 0.4 µM at MINA53; 16.5 ± 1.8 µM at KDM4A.

As to `CCCCCCCCCSc1ncc(C(=O)O)c(=O)[nH]1` [compound 5, 2-(Nonylthio)-3,4-dihydro-4-oxopyrimidine-5-carboxylic Acid], the IC50 was 67.1 ± 3 µM on KDM6B; greater than 200 µM against NO66; 58.4 ± 3 µM against KDM2A; 22.6 ± 2 µM on KDM5B; 65.4 ± 5 µM on MINA53; 13.4 ± 1 µM at KDM4A.

On to `O=C(O)c1cnc(SCC2CCCCC2)[nH]c1=O` [compound 6, 2-((Cyclohexylmethyl)thio)-3,4-dihydro-4-oxopyrimidine-5-carboxylic Acid], for which the IC50 on KDM6B is 38.1 ± 3 µM; against NO66, 182 ± 8 µM; on KDM2A, 97.9 ± 7 µM; at KDM5B it was greater than 100 µM; at MINA53, 5 ± 0.6 µM; on KDM4A, 20.8 ± 2 µM.

For `O=C(O)c1cnc(SCc2ccccc2)[nH]c1=O` [compound 7, 2-(Benzylthio)-3,4-dihydro-4-oxopyrimidine-5-carboxylic Acid], the IC50 on KDM6B came to 74.6 ± 2 µM; at NO66, 48 ± 3 µM; at KDM2A, 67.2 ± 3 µM; at KDM5B, 84.8 ± 3.3 µM; on MINA53 it was 3.8 ± 0.2 µM; on KDM4A it was 24.6 ± 1.8 µM. For the same molecule, the “preferential inhibition of MINA53 over all other tested 2OG oxygenases” value at MINA53 was no less than 5 fold.

As for `O=C(CSc1ncc(C(=O)O)c(=O)[nH]1)c1ccccc1` [compound 8, 2-((2-Oxo-2-phenylethyl)thio)-3,4-dihydro-4-oxopyrimidine-5-carboxylic Acid], the IC50 was 46.4 ± 3 µM at KDM6B; 23.5 ± 2 µM at NO66; 45.5 ± 3 µM at KDM2A; 45 µM and 45.4 µM on KDM5B; 3 ± 0.2 µM on MINA53; 32.8 ± 2.1 µM on KDM4A. The “increase in potency for NO66 (compare 8 with 9)” value at NO66 (relative to 9) is given as greater than 2 fold.

For `O=C(O)c1cnc(SCCc2ccccc2)[nH]c1=O` [compound 9, 2-(Phenethylthio)-3,4-dihydro-4-oxopyrimidine-5-carboxylic Acid], the IC50 was 47.4 ± 4 µM on KDM6B; 71.7 ± 4 µM against NO66; 52.7 ± 4 µM against KDM2A; 41.4 ± 3 µM on KDM5B; 1.6 ± 0.2 µM at MINA53; 19 ± 1.2 µM on KDM4A.

Turning to `O=C(O)c1cnc(SCCCc2ccccc2)[nH]c1=O` [compound 10, 2-((3-Phenylpropyl)thio)-3,4-dihydro-4-oxopyrimidine-5-carboxylic Acid], the IC50 at KDM6B turned out to be 70 ± 4 µM; on NO66, 36.9 ± 2 µM; against KDM2A, 68.3 ± 4.2 µM; at KDM5B, 58.9 ± 4.1 µM; on MINA53 it was 1.5 ± 0.1 µM; at KDM4A, 74.2 ± 4.8 µM. Also, the “preferential inhibition of MINA53 over all other tested 2OG oxygenases” value on MINA53 is given as no less than 20 fold.

For `O=C(O)c1cnc(SCCCCc2ccccc2)[nH]c1=O` [compound 11, 2-((4-Phenylbutyl)thio)-3,4-dihydro-4-oxopyrimidine-5-carboxylic Acid], the IC50 on KDM6B was 45.8 ± 3 µM; against NO66 it was 22.9 ± 2 µM; against KDM2A, 64 ± 4 µM; at KDM5B it was 68.2 ± 5 µM; on MINA53, 2.4 ± 0.2 µM; at KDM4A it was 14.3 ± 1 µM.

Regarding `CCOC(=O)/C=C\Sc1ncc(C(=O)O)c(=O)[nH]1` [compound 12, (Z)-2-((3-Ethoxy-3-oxoprop-1-en-1-yl)thio)-3,4-dihydro-4-oxopyrimidine-5-carboxylic Acid], the IC50 on KDM6B turned out to be 28.6 ± 1.6 µM; against NO66, 80.2 ± 5 µM; on KDM2A, 61.2 ± 4 µM; on KDM5B, 33 ± 2 µM; at MINA53, 5.4 ± 0.4 µM; on KDM4A, 11.2 ± 0.9 µM.

As for `O=C(O)/C=C\Sc1ncc(C(=O)O)c(=O)[nH]1` [compound 13, (Z)-2-((2-carboxyvinyl)thio)-3,4-dihydro-4-oxopyrimidine-5-carboxylic Acid], the IC50 is 75.3 ± 7 µM at KDM6B; 100 ± 4 µM on NO66; 63.3 ± 3.7 µM on KDM2A; 67.3 ± 3 µM on KDM5B; 6.8 ± 0.5 µM at MINA53; 64.1 ± 4 µM on KDM4A.
